Laboratory results reported in US9694021B2, “Pharmaceutical compositions with phosphonium antimicrobial agents” (Alcon Research, Ltd., priority 2010, dated 2017).

Tests used:
Type in all cases: cell-based
[1] = test system: Bacteria, Fungi; assay: PET overall result (Pass/Fail against USP / Ph. Eur. criteria); conditions: for PET Results (Pass/Fail): boric acid/mannitol/NaCl, pH 6.0
From the text: (§1) The present invention is particularly useful for the provision of multi-dose pharmaceutical (e.g., ophthalmic) compositions that have sufficient antimicrobial activity to allow the compositions to satisfy the USP preservative efficacy requirements, as well as other preservative efficacy standards for aqueous pharmaceutical compositions.
(§2) The preservative efficacy standards for multi-dose ophthalmic solutions in the U.S. and other countries/regions are set forth in the following table:
(§3) Concentrations for the various ingredients of the compositions of the examples provided below are w/v % unless otherwise specifically stated. The compositions of Examples A-D and their preservation efficacy testing (PET) results are provided below.

[2] = test system: Candida A.; assay: Preservative efficacy test (PET), Candida A.; conditions: boric acid/mannitol/NaCl, pH 6.0
From the text: as §1, §2, §3

[3] = test system: canine epithelial cells; assay: Cytotoxicity, neutral red retention
From the text: FIGS. 1 and 2 illustrate the relative cytotoxicity of compounds, some of which are in accordance with the present invention.
FIGS. 1 and 2 illustrate the cytotoxicity of the compounds shown in the above examples. In particular, these Figures show the neutral red retention of canine epithelial cells for the various compounds with the greater neutral red retention showing the lower the cytotoxicity. […] As such, many of these phosphonium antimicrobial agents can be used as suitable replacements for benzalkonium chloride particularly in circumstances where benzalkonium chloride is unsuitable (e.g., is incompatible with other ingredients in a solution).

[4] = test system: Staph Aureus; assay: Preservative efficacy test (PET), Staph Aureus; conditions: boric acid/mannitol/NaCl, pH 6.0
From the text: as §1, §2, §3

[5] = test system: Aspergillus N.; assay: Preservative efficacy test (PET), Aspergillus N.; conditions: boric acid/mannitol/NaCl, pH 6.0
From the text: as §1, §2, §3

[6] = test system: E. Coli; assay: Preservative efficacy test (PET), E. Coli; conditions: boric acid/mannitol/NaCl, pH 6.0
From the text: as §1, §2, §3

[7] = test system: Pseudomonas A.; assay: Preservative efficacy test (PET), Pseudomonas A.; conditions: boric acid/mannitol/NaCl, pH 6.0
From the text: as §1, §2, §3

OC[P+](CO)(CO)CO.[Cl-] [Tetrakis-Hydroxymethyl-Phosphonium Chloride]
PET Results (Pass/Fail) ([1]; 0.0025 % w/v): Pass USP | PET Results (Pass/Fail) ([1]; 0.005 % w/v): Pass USP | PET Results (Pass/Fail) ([1]; 0.01 % w/v): Pass EP-B | preservation / antimicrobial efficacy, in words ([1]; summary statements of the text on the PET tables): highly desirable antimicrobial efficacy | Candida A. (7 Day), PET log order reduction ([2]; 0.0025 % w/v): 0.0 | Candida A. (7 Day), PET log order reduction ([2]; 0.005 % w/v): 0.1 | Candida A. (7 Day), PET log order reduction ([2]; 0.01 % w/v): 0.9 | Candida A. (14 Day), PET log order reduction ([2]; 0.0025 % w/v): 0.2 | Candida A. (14 Day), PET log order reduction ([2]; 0.005 % w/v): 0.7 | Candida A. (14 Day), PET log order reduction ([2]; 0.01 % w/v): 2.2 | Candida A. (28 Day), PET log order reduction ([2]; 0.0025 % w/v): 1.2 | Candida A. (28 Day), PET log order reduction ([2]; 0.005 % w/v): 2.0 | Candida A. (28 Day), PET log order reduction ([2]; 0.01 % w/v): 3.9 | cytotoxicity (neutral red retention of canine epithelial cells) ([3]; FIG. 1, greater neutral red retention = lower cytotoxicity): extremely low level of cytotoxicity | cytotoxicity (neutral red retention of canine epithelial cells) ([3]; FIG. 2, various concentrations and vehicles): extremely low toxicity regardless of concentration and/or the vehicle | Staph Aureus (6 Hr), PET log order reduction ([4]; 0.0025 % w/v): 5.0/5.0/ | Staph Aureus (6 Hr), PET log order reduction ([4]; 0.005 % w/v): 5.0/5.0/ | Staph Aureus (6 Hr), PET log order reduction ([4]; 0.01 % w/v): 5.0/5.0/ | Staph Aureus (7 Day), PET log order reduction ([4]; 0.0025 % w/v): 5.0/5.0/5.0 | Staph Aureus (7 Day), PET log order reduction ([4]; 0.005 % w/v): 5.0/5.0/5.0 | Staph Aureus (7 Day), PET log order reduction ([4]; 0.01 % w/v): 5.0/5.0/5.0 | Staph Aureus (14 Day), PET log order reduction ([4]; 0.0025 % w/v): 5.0/5.0/5.0 | Staph Aureus (14 Day), PET log order reduction ([4]; 0.005 % w/v): 5.0/5.0/5.0 | Staph Aureus (14 Day), PET log order reduction ([4]; 0.01 % w/v): 5.0/5.0/5.0 | Staph Aureus (24 Hr), PET log order reduction ([4]; 0.0025 % w/v): 5.0/5.0/ | Staph Aureus (24 Hr), PET log order reduction ([4]; 0.005 % w/v): 5.0/5.0/ | Staph Aureus (24 Hr), PET log order reduction ([4]; 0.01 % w/v): 5.0/5.0/ | Staph Aureus (28 Day), PET log order reduction ([4]; 0.0025 % w/v): 5.0/5.0/5.0 | Staph Aureus (28 Day), PET log order reduction ([4]; 0.005 % w/v): 5.0/5.0/5.0 | Staph Aureus (28 Day), PET log order reduction ([4]; 0.01 % w/v): 5.0/5.0/5.0 | Aspergillus N. (7 D), PET log order reduction ([5]; 0.0025 % w/v): 3.1 | Aspergillus N. (7 D), PET log order reduction ([5]; 0.005 % w/v): 3.3 | Aspergillus N. (7 D), PET log order reduction ([5]; 0.01 % w/v): 3.2 | Aspergillus N. (14 D), PET log order reduction ([5]; 0.0025 % w/v): 2.9 | Aspergillus N. (14 D), PET log order reduction ([5]; 0.005 % w/v): 3.2 | Aspergillus N. (14 D), PET log order reduction ([5]; 0.01 % w/v): 5.3 | Aspergillus N. (28 Day), PET log order reduction ([5]; 0.0025 % w/v): 2.4 | Aspergillus N. (28 Day), PET log order reduction ([5]; 0.005 % w/v): 3.2 | Aspergillus N. (28 Day), PET log order reduction ([5]; 0.01 % w/v): 5.3 | E. Coli (6 Hr), PET log order reduction ([6]; 0.0025 % w/v): 5.1/5.1/ | E. Coli (6 Hr), PET log order reduction ([6]; 0.005 % w/v): 5.1/5.1/ | E. Coli (6 Hr), PET log order reduction ([6]; 0.01 % w/v): 5.1/5.1/ | E. Coli (7 Day), PET log order reduction ([6]; 0.0025 % w/v): 5.1/5.1/5.1 | E. Coli (7 Day), PET log order reduction ([6]; 0.005 % w/v): 5.1/5.1/5.1 | E. Coli (7 Day), PET log order reduction ([6]; 0.01 % w/v): 5.1/5.1/5.1 | E. Coli (14 Day), PET log order reduction ([6]; 0.0025 % w/v): 5.1/5.1/5.1 | E. Coli (14 Day), PET log order reduction ([6]; 0.005 % w/v): 5.1/5.1/5.1 | E. Coli (14 Day), PET log order reduction ([6]; 0.01 % w/v): 5.1/5.1/5.1 | E. Coli (24 Hr), PET log order reduction ([6]; 0.0025 % w/v): 5.1/5.1/ | E. Coli (24 Hr), PET log order reduction ([6]; 0.005 % w/v): 5.1/5.1/ | E. Coli (24 Hr), PET log order reduction ([6]; 0.01 % w/v): 5.1/5.1/ | E. Coli (28 Day), PET log order reduction ([6]; 0.0025 % w/v): 5.1/5.1/5.1 | E. Coli (28 Day), PET log order reduction ([6]; 0.005 % w/v): 5.1/5.1/5.1 | E. Coli (28 Day), PET log order reduction ([6]; 0.01 % w/v): 5.1/5.1/5.1 | Pseudomonas A. (6 Hr), PET log order reduction ([7]; 0.0025 % w/v): 3.3 | Pseudomonas A. (6 Hr), PET log order reduction ([7]; 0.005 % w/v): 5.0/5.0/ | Pseudomonas A. (6 Hr), PET log order reduction ([7]; 0.01 % w/v): 5.0/5.0/ | Pseudomonas A. (7 Day), PET log order reduction ([7]; 0.0025 % w/v): 5.0/5.0/5.0 | Pseudomonas A. (7 Day), PET log order reduction ([7]; 0.005 % w/v): 5.0/5.0/5.0 | Pseudomonas A. (7 Day), PET log order reduction ([7]; 0.01 % w/v): 5.0/5.0/5.0 | Pseudomonas A. (14 Day), PET log order reduction ([7]; 0.0025 % w/v): 5.0/5.0/5.0 | Pseudomonas A. (14 Day), PET log order reduction ([7]; 0.005 % w/v): 5.0/5.0/5.0 | Pseudomonas A. (14 Day), PET log order reduction ([7]; 0.01 % w/v): 5.0/5.0/5.0 | Pseudomonas A. (24 Hr), PET log order reduction ([7]; 0.0025 % w/v): 5.0 | Pseudomonas A. (24 Hr), PET log order reduction ([7]; 0.005 % w/v): 5.0/5.0/ | Pseudomonas A. (24 Hr), PET log order reduction ([7]; 0.01 % w/v): 5.0/5.0/ | Pseudomonas A. (28 Day), PET log order reduction ([7]; 0.0025 % w/v): 5.0/5.0/5.0 | Pseudomonas A. (28 Day), PET log order reduction ([7]; 0.005 % w/v): 5.0/5.0/5.0 | Pseudomonas A. (28 Day), PET log order reduction ([7]; 0.01 % w/v): 5.0/5.0/5.0
